The numbers were not newly measured in patent publication US20220226307A1, “INHIBITION OF BETA-2 NICOTINIC ACETYLCHOLINE RECEPTORS TO TREAT ALZHEIMER'S DISEASE PATHOLOGY” (INSTITUT PASTEUR, priority 2016, published 2022), which cites them from elsewhere.

The subject of the data set is ventral hippocampus alpha-7 nAChR and alpha-4 beta-2 nAChR. Conditions: local infusion in ventral hippocampus (Felix and Levin, 1997; Levin et al., 2002).

In the case of `CCN1C[C@]2(COC(=O)c3ccccc3N3C(=O)C[C@H](C)C3=O)CC[C@H](OC)[C@@]34[C@@H]5C[C@H]6[C@H](OC)[C@@H]5[C@](O)(C[C@@H]6OC)[C@@](O)([C@@H](OC)[C@H]23)[C@@H]14` [MLA, methyllycaconitine], the working memory entry is on record as “induces working memory impairments”.

With `Br.CO[C@H]1CC=C2CCN3CCC4=C(CC(=O)OC4)[C@]23C1` [DHβE, dihydro-β-erythroidine hydrobromide], the working memory entry is on record as “induces working memory impairments”.
